Format: in vivo, human
Conditions: for Tmax: both, human, serum, oral, 3 g, mean Tmax, all participants (RG and FRG groups together)

Structure (SMILES) | Tmax [h] | AUC in the FRG group relative to the RG group (mean AUC, FRG group vs RG group)
CC(C)=CCC[C@](C)(O[C@@H]1O[C@H](CO)[C@@H](O)[C@H](O)[C@H]1O)[C@H]1CC[C@]2(C)[C@@H]1[C@H](O)C[C@@H]1[C@@]3(C)CC[C@H](O[C@@H]4O[C@H](CO)[C@@H](O)[C@H](O)[C@H]4O)C(C)(C)[C@@H]3CC[C@]12C [F2, ginsenoside F2] | 9.32 ± 3.38 | more than six
CC(C)=CCC[C@](C)(O[C@@H]1O[C@H](CO)[C@@H](O)[C@H](O)[C@H]1O)[C@H]1CC[C@]2(C)[C@@H]1[C@H](O)C[C@@H]1[C@@]3(C)CC[C@H](O[C@@H]4O[C@H](CO)[C@@H](O)[C@H](O)[C@H]4O[C@@H]4O[C@H](CO)[C@@H](O)[C@H](O)[C@H]4O)C(C)(C)[C@@H]3CC[C@]12C [Rd, ginsenoside Rd] | 9.41 ± 4.42 | –
